Each structure is given as a SMILES string. Several values for one entry are separate records, joined by “and”; a condition that tells them apart may be missing. Equal values may be shown once.

The test deals with Inosine-5'-monophosphate dehydrogenase 2 (Homo sapiens, UniProt P12268). Briefly: Enzyme Assay. To be noted: pH 8; 37 °C. The method, then:
The reaction was initiated by the addition of 300 μM of IMP and 500 μM of NAD+ and the assay was allowed to proceed at 37 °C for 50 min before stopping by the addition of 15 mM GMP. The NADH generated was measured by reading the absorbance at 340 nm.
Broadly, the IC50 is the concentration at which inhibition is half-maximal. `CCC(CC#N)OC(=O)N[C@@H](C)c1cccc(NC(=O)Nc2ccc(OC)c(OC)c2)c1` (some centres not stated) [IMPDH II inhibitor, 13] returned an IC50 of 0.23 µM. Regarding `CCC(CC#N)OC(=O)N[C@@H](C)c1cccc(NC(=O)Nc2ccc(C3=CCOCC3)c(OC)c2)c1` (some centres not stated) [IMPDH II inhibitor, 16], the IC50 stood at 3.5 µM.

Take `CCC(CC#N)OC(=O)N[C@@H](C)c1cccc(NC(=O)Nc2ccc(C3CCOCC3)c(OC)c2)c1` (some centres not stated) [IMPDH II inhibitor, 17]: the 50% inhibitory concentration (IC50) is less than 30 µM. In the case of `COc1cc(N/C(=N/C#N)Nc2cccc(-c3cccc(C(F)(F)F)c3)c2)ccc1C#N` [IMPDH II inhibitor, 57] it was less than 30 µM; in that of `CCC(CC#N)OC(=O)N[C@@H](C)c1cccc(NC(=O)Nc2ccc(C)c(OC)c2)c1` (some centres not stated) [IMPDH II inhibitor, 14], 19 µM; in that of `CCC(CC#N)OC(=O)N[C@@H](C)c1cccc(NC(=O)Nc2ccc3ncnc(OC)c3c2)c1` (some centres not stated) [IMPDH II inhibitor, 25], less than 30 µM. Then `CCC(CC#N)OC(=O)N[C@@H](C)c1cccc(NC(=O)Nc2ccc3c(=O)ccoc3c2)c1` (some centres not stated) [IMPDH II inhibitor, 27], with less than 10 µM; and `COc1cc(N/C(=N/C#N)Nc2cccc(-c3nnn(C)n3)c2)ccc1C#N` [IMPDH II inhibitor, 47], with less than 30 µM; and `COc1cc(N/C(=N/C#N)Nc2cccc(-c3ccc(F)cc3)c2)ccc1C#N` [IMPDH II inhibitor, 56], with less than 30 µM. As for `CCC(CC#N)OC(=O)N[C@@H](C)c1cccc(NC(=O)Nc2ccc3c(c2)C(C)CO3)c1` (some centres not stated) [IMPDH II inhibitor, 24], the IC50 was less than 30 µM. In the case of `CCC(CC#N)OC(=O)N[C@@H](C)c1cccc(NC(=O)NS(=O)(=O)c2ccc(OC)c(OC)c2)c1` (some centres not stated) [IMPDH II inhibitor, 40] it was less than 30 µM; in that of `CCC(CC#N)OC(=O)N[C@@H](C)c1cccc(NC(=O)Nc2ccc3c(=O)cc(C)oc3c2)c1` (some centres not stated) [IMPDH II inhibitor, 26], less than 30 µM; in that of `CCC(CC#N)OC(=O)N[C@@H](C)c1cccc(NC(=O)Nc2ccc(C#N)c(OC)c2)c1` (some centres not stated) [VX-148 (3)], 0.38 µM.

Consider `COc1cc(N/C(=N/C#N)Nc2cccc(Cc3nnn(C)n3)c2)ccc1C#N` [IMPDH II inhibitor, 49], for which the IC50 is less than 30 µM. As for `CCC(CC#N)OC(=O)N[C@@H](C)c1cccc(NC(=N)Nc2ccc(OC)c(OC)c2)c1` (some centres not stated) [IMPDH II inhibitor, 31], the IC50 is less than 30 µM. In the case of `CCC(CC#N)OC(=O)N[C@@H](C)c1cccc(NC(=O)N2CCN(c3ccc(C#N)c(OC)c3)CC2)c1` (some centres not stated) [IMPDH II inhibitor, 41] it was less than 30 µM; in that of `CCC(CC#N)OC(=O)N[C@@H](C)c1cccc(NC(=O)COc2ccc(C#N)c(OC)c2)c1` (some centres not stated) [IMPDH II inhibitor, 38], less than 30 µM; in that of `COc1cc(NC(=O)Nc2cccc(CNC(=O)OC3CCOC3)c2)ccc1-c1cnco1` (configuration not stated) [VX-497 (2)], 0.0035 µM. In the case of `COc1cc(N/C(=N/C#N)Nc2cccc(-c3cccc(F)c3)c2)ccc1C#N` [IMPDH II inhibitor, 55] it was less than 30 µM. Then `COc1cc(N/C(=N/C#N)Nc2cccc(OCC(=O)C(C)=O)c2)ccc1C#N` [IMPDH II inhibitor, 45], with less than 30 µM. Compound `CCC(CC#N)OC(=O)N[C@@H](C)c1cccc(NC(=O)Nc2ccc3c(c2)OCC3)c1` (some centres not stated) [IMPDH II inhibitor, 18] showed an IC50 of 10 µM.

The compound `CCC(CC#N)OC(=O)N[C@@H](C)c1cccc(NC(=O)Nc2ccc3cc(OC)c(OC)cc3c2)c1` (some centres not stated) [IMPDH II inhibitor, 23] yielded an IC50 of less than 30 µM. In the case of `COc1cc(N/C(=N/C#N)Nc2cccc(OCC(=O)O)c2)ccc1C#N` [IMPDH II inhibitor, 46] it was less than 30 µM; in that of `COc1cc(N/C(=N/C#N)Nc2cccc(-c3cccc(C(=O)O)c3)c2)ccc1C#N` [IMPDH II inhibitor, 58], less than 30 µM. In the case of `COc1cc(N/C(=N/C#N)Nc2cccc(CC(=O)O)c2)ccc1C#N` [IMPDH II inhibitor, 52] it was less than 30 µM. In the case of `CCC(CC#N)OC(=O)N[C@@H](C)c1cccc(NC(=O)Nc2ccc3c(c2)ncn3C)c1` (some centres not stated) [IMPDH II inhibitor, 21] it was 14 µM. `CCC(CC#N)OC(=O)N[C@@H](C)c1cccc(NCC(=O)Nc2ccc(OC)c(OC)c2)c1` (some centres not stated) [IMPDH II inhibitor, 36]: the IC50 was less than 30 µM. In the case of `COc1cc(N/C(=N/C#N)Nc2cccc(C(=O)O)c2)ccc1C#N` [IMPDH II inhibitor, 53], the IC50 is less than 30 µM. In the case of `COc1cc(N/C(=N/C#N)Nc2cccc(-c3cccc(C#N)c3)c2)ccc1C#N` [IMPDH II inhibitor, 60] it was less than 30 µM; in that of `COc1cc(N/C(=N/C#N)Nc2cccc(-c3ccc(C#N)cc3)c2)ccc1C#N` [IMPDH II inhibitor, 59], less than 30 µM. In turn, `CCC(CC#N)OC(=O)N[C@@H](C)c1cccc(NC(=O)Nc2ccc3ncc(OC)nc3c2)c1` (some centres not stated) [IMPDH II inhibitor, 22] came in with an IC50 of less than 30 µM.

Consider `CCC(CC#N)OC(=O)N[C@@H](C)c1cccc(NC(=O)Nc2ccc3c(c2)OCO3)c1` (some centres not stated) [IMPDH II inhibitor, 20], for which the IC50 was more than 30 µM. In the case of `CCC(CC#N)OC(=O)N[C@@H](C)c1cccc(NC(=O)Nc2ccc(N3CCOCC3)c(OC)c2)c1` (some centres not stated) [IMPDH II inhibitor, 15] it was less than 30 µM. In the case of `CCC(CC#N)OC(=O)N[C@@H](C)c1cccc(N/C(=N/C#N)Nc2ccc(OC)c(OC)c2)c1` (some centres not stated) [IMPDH II inhibitor, 33] it was 5.6 µM; in that of `CCC(CC#N)OC(=O)N[C@@H](C)c1cccc(NC(=O)c2cncc(-c3ccc(C#N)c(OC)c3)n2)c1` (some centres not stated) [IMPDH II inhibitor, 43], less than 30 µM. On to `CCC(CC#N)OC(=O)N[C@@H](C)c1cccc(Nc2nc3ccc(-c4ccc(C#N)c(OC)c4)cc3[nH]2)c1` (some centres not stated) [IMPDH II inhibitor, 44], for which the IC50 is less than 30 µM.

On to `CCC(CC#N)OC(=O)N[C@@H](C)c1cccc(N/C(=N/C#N)Nc2ccc(C#N)c(OC)c2)c1` (some centres not stated) [IMPDH II inhibitor, 32], for which the IC50 is 3 µM.

As for `CCC(CC#N)OC(=O)N[C@@H](C)c1cccc(NC(=N)Nc2ccc(C#N)c(OC)c2)c1` (some centres not stated) [IMPDH II inhibitor, 30], the IC50 is < 30 µM and 30 µM. In the case of `COc1cc(N/C(=N/C#N)Nc2cccc(/C=C/C(=O)O)c2)ccc1C#N` [IMPDH II inhibitor, 51] it was less than 30 µM; in that of `CCC(CC#N)OC(=O)N[C@@H](C)c1cccc(N/C(=C/[N+](=O)[O-])Nc2ccc(OC)c(OC)c2)c1` (some centres not stated) [IMPDH II inhibitor, 35], less than 30 µM. Then `COc1cc(N/C(=N/C#N)Nc2cccc(CCC(=O)O)c2)ccc1C#N` [IMPDH II inhibitor, 50], with less than 30 µM; and `CCC(CC#N)OC(=O)N[C@@H](C)c1cccc(N/C(=C/[N+](=O)[O-])Nc2ccc(C#N)c(OC)c2)c1` (some centres not stated) [IMPDH II inhibitor, 34], with less than 30 µM; and `CCC(CC#N)OC(=O)N[C@@H](C)c1cccc(NC(=O)COc2ccc(OC)c(OC)c2)c1` (some centres not stated) [IMPDH II inhibitor, 39], with less than 30 µM. Then `CCC(CC#N)OC(=O)N[C@@H](C)c1cccc(N2C(=O)CN(c3ccc(C#N)c(OC)c3)C2=O)c1` (some centres not stated) [IMPDH II inhibitor, 42], with 25 µM. `CCC(CC#N)OC(=O)N[C@@H](C)c1cccc(NC(=O)CNc2ccc(C#N)c(OC)c2)c1` (some centres not stated) [IMPDH II inhibitor, 37] came in with an IC50 of less than 30 µM.

Compound `COc1cc(N/C(=N/C#N)Nc2cccc(-c3ccccc3F)c2)ccc1C#N` [IMPDH II inhibitor, 54] had an IC50 of less than 30 µM.

The compound `COc1cc(N/C(=N/C#N)Nc2cccc(-c3nnnn3C)c2)ccc1C#N` [IMPDH II inhibitor, 48] returned an IC50 of less than 30 µM.

The values above are taken from BindingDB's records for doi:10.3109/14756366.2013.793184 (Nycomed, 2014).
